Measurements reported in PubChem BioAssay (NCI).
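Each compound was tested at five concentrations against cells in 96-well plates for 48 hours. The concentration for 50% growth inhibition is given as GI50. TGI: concentration producing complete growth inhibition.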

Key:
Experiment in all cases: inhibition of tumour cell growth, NCI panel, 48 h; in the data active = GI50 below about 0.43 µM; inactive = the rest
DU-145 prostate = system: DU-145 prostate
EKVX NSCLC = system: EKVX NSCLC
SK-MEL-2 melanoma = system: SK-MEL-2 melanoma
MALME-3M melanoma = system: MALME-3M melanoma
RXF 393 renal = system: RXF 393 renal
BT-549 breast = system: BT-549 breast
HOP-92 NSCLC = system: HOP-92 NSCLC
HS 578T breast = system: HS 578T breast
MCF7 breast = system: MCF7 breast
UO-31 renal = system: UO-31 renal
NCI-H460 lung = system: NCI-H460 lung
NCI-H226 lung = system: NCI-H226 lung
SR leukemia = system: SR leukemia
COLO 205 colon = system: COLO 205 colon
SN12C renal = system: SN12C renal
A549 NSCLC = system: A549 NSCLC
A498 renal = system: A498 renal
UACC-257 melanoma = system: UACC-257 melanoma
SNB-19 CNS = system: SNB-19 CNS
SF-268 CNS = system: SF-268 CNS
OVCAR-5 ovarian = system: OVCAR-5 ovarian
HT29 colon = system: HT29 colon
HCT-15 colon = system: HCT-15 colon
HL-60(TB) leukemia = system: HL-60(TB) leukemia
HCT-116 colon = system: HCT-116 colon
KM12 colon = system: KM12 colon
SF-539 CNS = system: SF-539 CNS
UACC-62 melanoma = system: UACC-62 melanoma
TK-10 renal = system: TK-10 renal
SNB-75 CNS = system: SNB-75 CNS
MOLT-4 leukemia = system: MOLT-4 leukemia
CCRF-CEM leukemia = system: CCRF-CEM leukemia
OVCAR-3 ovarian = system: OVCAR-3 ovarian
HOP-62 NSCLC = system: HOP-62 NSCLC
T-47D breast = system: T-47D breast
HCC-2998 colon = system: HCC-2998 colon
MDA-MB-231 breast = system: MDA-MB-231 breast
NCI-H23 lung = system: NCI-H23 lung
CAKI-1 renal = system: CAKI-1 renal
U251 CNS = system: U251 CNS
786-0 renal = system: 786-0 renal
NCI-H522 lung = system: NCI-H522 lung
LOX IMVI melanoma = system: LOX IMVI melanoma
NCI/ADR-RES ovarian = system: NCI/ADR-RES ovarian
PC-3 prostate = system: PC-3 prostate
RPMI-8226 leukemia = system: RPMI-8226 leukemia
SK-MEL-28 melanoma = system: SK-MEL-28 melanoma
OVCAR-4 ovarian = system: OVCAR-4 ovarian
SW-620 colon = system: SW-620 colon
SF-295 CNS = system: SF-295 CNS
SK-OV-3 ovarian = system: SK-OV-3 ovarian
SK-MEL-5 melanoma = system: SK-MEL-5 melanoma
IGROV1 ovarian = system: IGROV1 ovarian
K-562 leukemia = system: K-562 leukemia
OVCAR-8 ovarian = system: OVCAR-8 ovarian
ACHN renal = system: ACHN renal
M14 melanoma = system: M14 melanoma

N[C@@H]1CCCN(c2c(Br)cnc3[nH]cc(NC(=O)C4CC4)c23)C1
> 55.8 µM: TGI (HOP-92 NSCLC)
> 100 µM: TGI (DU-145 prostate) | TGI (SK-MEL-2 melanoma) | TGI (MALME-3M melanoma) | TGI (MCF7 breast) | TGI (NCI-H460 lung) | TGI (SR leukemia) | TGI (SN12C renal) | TGI (A549 NSCLC) | TGI (UACC-257 melanoma) | TGI (SNB-19 CNS) | TGI (SF-268 CNS) | TGI (OVCAR-5 ovarian) | TGI (HT29 colon) | TGI (HCT-15 colon) | TGI (HCT-116 colon) | TGI (KM12 colon) | TGI (UACC-62 melanoma) | TGI (MOLT-4 leukemia) | TGI (CCRF-CEM leukemia) | TGI (OVCAR-3 ovarian) | TGI (HOP-62 NSCLC) | TGI (T-47D breast) | TGI (HCC-2998 colon) | TGI (NCI-H23 lung) | TGI (U251 CNS) | TGI (NCI-H522 lung) | TGI (PC-3 prostate) | TGI (SK-MEL-28 melanoma) | TGI (OVCAR-4 ovarian) | TGI (SW-620 colon) | TGI (SF-295 CNS) | TGI (SK-OV-3 ovarian) | TGI (IGROV1 ovarian) | TGI (K-562 leukemia) | TGI (OVCAR-8 ovarian)
59 µM: TGI (COLO 205 colon)
77.5 µM: TGI (MDA-MB-231 breast)
0.503 µM: TGI (SF-539 CNS)
26.1 µM: TGI (HS 578T breast)
active: GI50 (RXF 393 renal) 0.0618 µM | GI50 (HS 578T breast) 0.417 µM | GI50 (MCF7 breast) 0.123 µM | GI50 (UO-31 renal) 0.232 µM | GI50 (SR leukemia) 0.112 µM | GI50 (A498 renal) 0.0412 µM | GI50 (HL-60(TB) leukemia) 0.318 µM | GI50 (SF-539 CNS) 0.0809 µM | GI50 (MOLT-4 leukemia) 0.279 µM | GI50 (CCRF-CEM leukemia) 0.211 µM | GI50 (OVCAR-3 ovarian) 0.364 µM | GI50 (HCC-2998 colon) 0.399 µM | GI50 (NCI-H23 lung) 0.234 µM | GI50 (786-0 renal) 0.22 µM | GI50 (NCI/ADR-RES ovarian) 0.393 µM | GI50 (OVCAR-4 ovarian) 0.341 µM | GI50 (SF-295 CNS) 0.328 µM | GI50 (IGROV1 ovarian) 0.409 µM | GI50 (K-562 leukemia) 0.303 µM
> 68.6 µM: TGI (TK-10 renal)
inactive: GI50 (DU-145 prostate) 0.459 µM | GI50 (EKVX NSCLC) 2.32 µM | GI50 (SK-MEL-2 melanoma) 0.492 µM | GI50 (MALME-3M melanoma) 1.27 µM | GI50 (BT-549 breast) 0.45 µM | GI50 (HOP-92 NSCLC) 1.02 µM | GI50 (NCI-H460 lung) 0.785 µM | GI50 (NCI-H226 lung) 11 µM | GI50 (COLO 205 colon) 2.27 µM | GI50 (SN12C renal) 1.78 µM | GI50 (A549 NSCLC) 1.5 µM | GI50 (SNB-19 CNS) 0.692 µM | GI50 (SF-268 CNS) 3.92 µM | GI50 (OVCAR-5 ovarian) 0.478 µM | GI50 (HT29 colon) 1.01 µM | GI50 (HCT-15 colon) 0.54 µM | GI50 (HCT-116 colon) 10.6 µM | GI50 (KM12 colon) 0.67 µM | GI50 (UACC-62 melanoma) 0.464 µM | GI50 (TK-10 renal) 0.606 µM | GI50 (SNB-75 CNS) 1.53 µM | GI50 (HOP-62 NSCLC) 0.646 µM | GI50 (T-47D breast) 38.2 µM | GI50 (MDA-MB-231 breast) 2.91 µM | GI50 (CAKI-1 renal) 0.518 µM | GI50 (U251 CNS) 7.96 µM | GI50 (NCI-H522 lung) 13 µM | GI50 (LOX IMVI melanoma) 0.435 µM | GI50 (PC-3 prostate) 20.3 µM | GI50 (RPMI-8226 leukemia) 0.68 µM | GI50 (SK-MEL-28 melanoma) 77.2 µM | GI50 (SW-620 colon) 2.06 µM | GI50 (SK-OV-3 ovarian) 0.448 µM | GI50 (SK-MEL-5 melanoma) 0.469 µM | GI50 (OVCAR-8 ovarian) 0.51 µM
6 µM: TGI (CAKI-1 renal)
> 94.6 µM: TGI (NCI-H226 lung)
0.182 µM: TGI (A498 renal)
0.709 µM: TGI (786-0 renal)
0.27 µM: TGI (RXF 393 renal)
> 70.7 µM: TGI (NCI/ADR-RES ovarian)
7.54 µM: TGI (SNB-75 CNS)
1.06 µM: TGI (UO-31 renal)
2.24 µM: TGI (SK-MEL-5 melanoma)
13.4 µM: TGI (LOX IMVI melanoma)
38 µM: TGI (BT-549 breast)
> 31.6 µM: TGI (EKVX NSCLC)
4.51 µM: TGI (HL-60(TB) leukemia)

Cn1cc(-c2cc(-c3cn(C)c4ccccc34)[nH]n2)c2ccccc21
90.3 µM: TGI (A498 renal)
46.9 µM: TGI (U251 CNS)
61.7 µM: TGI (BT-549 breast)
29.3 µM: TGI (CCRF-CEM leukemia)
74.1 µM: TGI (IGROV1 ovarian)
> 100 µM: TGI (DU-145 prostate) | TGI (EKVX NSCLC) | TGI (SK-MEL-2 melanoma) | TGI (MALME-3M melanoma) | TGI (ACHN renal) | TGI (HS 578T breast) | TGI (MCF7 breast) | TGI (UO-31 renal) | TGI (NCI-H460 lung) | TGI (COLO 205 colon) | TGI (A549 NSCLC) | TGI (UACC-257 melanoma) | TGI (SNB-19 CNS) | TGI (SF-268 CNS) | TGI (OVCAR-5 ovarian) | TGI (HT29 colon) | TGI (HCT-15 colon) | TGI (HCT-116 colon) | TGI (KM12 colon) | TGI (UACC-62 melanoma) | TGI (TK-10 renal) | TGI (OVCAR-3 ovarian) | TGI (T-47D breast) | TGI (HCC-2998 colon) | TGI (MDA-MB-231 breast) | TGI (NCI-H23 lung) | TGI (M14 melanoma) | TGI (CAKI-1 renal) | TGI (NCI-H522 lung) | TGI (LOX IMVI melanoma) | TGI (NCI/ADR-RES ovarian) | TGI (PC-3 prostate) | TGI (RPMI-8226 leukemia) | TGI (SK-MEL-28 melanoma) | TGI (OVCAR-4 ovarian) | TGI (SW-620 colon) | TGI (SF-295 CNS) | TGI (SK-OV-3 ovarian) | TGI (SK-MEL-5 melanoma) | TGI (K-562 leukemia) | TGI (OVCAR-8 ovarian)
60 µM: TGI (HOP-62 NSCLC)
44.3 µM: TGI (SF-539 CNS)
41.2 µM: TGI (786-0 renal)
14.8 µM: TGI (SR leukemia)
99 µM: TGI (NCI-H226 lung)
9.57 µM: TGI (HOP-92 NSCLC)
inactive: GI50 (DU-145 prostate) 15.6 µM | GI50 (EKVX NSCLC) 27.2 µM | GI50 (SK-MEL-2 melanoma) 57.5 µM | GI50 (MALME-3M melanoma) 93.1 µM | GI50 (RXF 393 renal) 14.7 µM | GI50 (BT-549 breast) 15.9 µM | GI50 (HOP-92 NSCLC) 2.06 µM | GI50 (ACHN renal) 7.68 µM | GI50 (HS 578T breast) 18.5 µM | GI50 (MCF7 breast) 3.95 µM | GI50 (UO-31 renal) 37.6 µM | GI50 (NCI-H460 lung) 4.48 µM | GI50 (NCI-H226 lung) 19.8 µM | GI50 (SR leukemia) 3.46 µM | GI50 (COLO 205 colon) 7.98 µM | GI50 (SN12C renal) 1.95 µM | GI50 (A549 NSCLC) 16.3 µM | GI50 (A498 renal) 19.6 µM | GI50 (UACC-257 melanoma) 80.6 µM | GI50 (SNB-19 CNS) 27 µM | GI50 (SF-268 CNS) 16 µM | GI50 (OVCAR-5 ovarian) > 100 µM | GI50 (HT29 colon) 5.35 µM | GI50 (HCT-15 colon) 8.68 µM | GI50 (HL-60(TB) leukemia) 15.4 µM | GI50 (HCT-116 colon) 19 µM | GI50 (KM12 colon) 4.58 µM | GI50 (SF-539 CNS) 16.2 µM | GI50 (UACC-62 melanoma) 16.4 µM | GI50 (TK-10 renal) 37.4 µM | GI50 (SNB-75 CNS) 18.4 µM | GI50 (MOLT-4 leukemia) 4.75 µM | GI50 (CCRF-CEM leukemia) 14.4 µM | GI50 (OVCAR-3 ovarian) 28.4 µM | GI50 (HOP-62 NSCLC) 17.3 µM | GI50 (T-47D breast) 79.7 µM | GI50 (HCC-2998 colon) 4.74 µM | GI50 (MDA-MB-231 breast) 8.06 µM | GI50 (NCI-H23 lung) 22 µM | GI50 (M14 melanoma) > 100 µM | GI50 (CAKI-1 renal) > 100 µM | GI50 (U251 CNS) 12.9 µM | GI50 (786-0 renal) 14.1 µM | GI50 (NCI-H522 lung) 22.1 µM | GI50 (LOX IMVI melanoma) 5.38 µM | GI50 (NCI/ADR-RES ovarian) 27.6 µM | GI50 (PC-3 prostate) 8.11 µM | GI50 (RPMI-8226 leukemia) 37.8 µM | GI50 (SK-MEL-28 melanoma) > 100 µM | GI50 (OVCAR-4 ovarian) 34.9 µM | GI50 (SW-620 colon) > 100 µM | GI50 (SF-295 CNS) 17.1 µM | GI50 (SK-OV-3 ovarian) 31.6 µM | GI50 (SK-MEL-5 melanoma) 13.1 µM | GI50 (IGROV1 ovarian) 8.9 µM | GI50 (K-562 leukemia) 42.1 µM | GI50 (OVCAR-8 ovarian) 28.8 µM
20.8 µM: TGI (MOLT-4 leukemia)
69.9 µM: TGI (SNB-75 CNS)
62.8 µM: TGI (HL-60(TB) leukemia)
23.1 µM: TGI (SN12C renal)
38.7 µM: TGI (RXF 393 renal)
